Tests used:
Type in all cases: physicochemical
[1] = Effect of pH on formation of related compounds, aqueous composition stored at 40° C. for 1 month followed by one-year storage at 2-8° C.; settings: 25 mg/mL, 40° C. 1 month then one year 2-8° C.
Experimental: (§1) The effect of the pH of the aqueous fludarabine phosphate composition on the stability of the compositions at elevated temperatures also is shown in Tables 2 and 3. The concentration of fludarabine phosphate in each of the compositions of Tables 2 and 3 was 25 mg/mL.

[2] = Effect of pH on formation of related compounds, aqueous composition stored at 27.5° C. for 7 months
Experimental: as §1

[3] = Effect of pH on formation of related compounds, aqueous compositions stored at 40° C. for 1 month
Experimental: The effect of the pH of the aqueous fludarabine phosphate composition on the stability of the compositions at elevated temperatures is shown in the following table. The concentration of fludarabine phosphate in each of the compositions of Table 1 was 25 mg/mL.
Its level of “total related compounds” was 0.1%. In contrast, after being stored for 1 months at 40° C., the fludarabine phosphate composition having a pH of 7.7 contained 0.8 of FP-2HA and 1.3% “total related compounds.”

[4] = pH 5.5, 25 mg/mL aqueous composition
[5] = pH 6.5, 25 mg/mL aqueous composition
[6] = pH 7.7, 25 mg/mL aqueous composition
[7] = pH 8.1, 25 mg/mL aqueous composition

In the case of Fludarabine phosphate, the “Concentration of FP-2HA, %” value ([1]; pH 6.0) is reported as 0.4%, the “Single Largest Other, %” value ([1]; pH 6.0) is reported as 0.09% and the “Total Related Compounds*, % (excluding fludarabine)” value (“Total Related Compounds*, %” below) ([1]; pH 6.0) is reported as 0.5%. The “Concentration of FP-2HA, %” value ([1]; pH 7.0) was 0.32%, the “Single Largest Other, %” value ([1]; pH 7.0) was 0.1% and the “Total Related Compounds*, %” value ([1]; pH 7.0) was 0.34%. The “Concentration of FP-2HA, %” value ([1]; pH 7.6) was 0.56%, the “Single Largest Other, %” value ([1]; pH 7.6) was 0.2% and the “Total Related Compounds*, %” value ([1]; pH 7.6) was 1.1%. The “Concentration of FP-2HA, %” value ([1]; pH 8.1) was 0.93%, the “Single Largest Other, %” value ([1]; pH 8.1) was 0.4% and the “Total Related Compounds*, %” value ([1]; pH 8.1) was 2.0%. The “Concentration of FP-2HA, %” value ([2]; pH 6.8, 25 mg/mL) was 0.33%, the “Single Largest Other, %” value ([2]; pH 6.8, 25 mg/mL) was 0.1% and the “Total Related Compounds*, %” value ([2]; pH 6.8, 25 mg/mL) was 0.43%. The “Concentration of FP-2HA, %” value ([2]; pH 7.2, 25 mg/mL) was 0.54%, the “Single Largest Other, %” value ([2]; pH 7.2, 25 mg/mL) was 0.1% and the “Total Related Compounds*, %” value ([2]; pH 7.2, 25 mg/mL) was 0.94%. The “Concentration of FP-2HA, %” value [3, 4] was “<LOQ”, the “Total Related Compounds*, %” value [3, 4] was 0.1% and the “Concentration of FP-2HA, %” value [3, 5] was “<LOQ”. For the same substance, the “Total Related Compounds*, %” value [3, 5] was 0.2%, the “Concentration of FP-2HA, %” value [3, 6] was 0.8% and the “Total Related Compounds*, %” value [3, 6] was 1.3%. The “Concentration of FP-2HA, %” value [3, 7] was 1.0% and the “Total Related Compounds*, %” value [3, 7] was 2.2%.
